According to patent publication EP4707263A1, “FLUORINATING AGENT AND FLUORINATION METHOD” (Daikin Industries, Ltd., priority 2024, dated 2025):

Assay: pKa (acid dissociation constant) determined by neutralization titration
Assay type: physicochemical
Details: acid dissociation constant at 25°C in water

For `CO` [Base B-2, KOMe], the pKa was 16.
